Measurements taken from patent publication US12053479B2, “Transdermal treatment for erectile dysfunction” (Madera Pharmaceuticals, Inc., priority 2020, dated 2024).
Read-outs that look alike come from different tables or passages of the source.

Legend:
[1] = Drug solubility in individual excipients
[2] = In vitro permeation testing (IVPT), diffusion cell; conditions: cumulative amount in receptor solution versus time (FIGS. 2-4)
Excerpt: With reference to FIG. 1, in vitro skin permeation experiments used a diffusion cell designed to mimic the physiological and anatomical conditions of skin in situ. The diffusion cell included a donor compartment configured to receive the formulation, or solvent system, to be tested. A receptor compartment included a flow path for receptor solution, which was to be analyzed. Dermatomed skin was arranged between the donor compartment and receptor compartment. As such, a formulation comprising the solvent system having the drug is applied to the skin in the donor compartment. A portion of the drug permeated through the skin into the receptor solution, which was analyzed to determine drug concentration at several time periods, including 0.25, 0.5, 1, 1.5 2, 4, 6 and 8 hours. […]
The receptor solution was collected and analyzed as discussed. The cumulative amount per cm^2 of phentolamine, papaverine, and prostaglandin permeated into the receptor solution was calculated from drug concentrations measured in the receptor solution over time. The cumulative amount per cm^2 of phentolamine, papaverine, and prostaglandin at the final timepoint was calculated for each replicate. […] Means and standard errors were calculated and reported in figures and tables, including Tables 5 and 6 below.

[3] = in water, buffer solutions (pH 4 and 7) and glycerol

| SMILES | Solubility (in words) ([1]; in ethanol and transcutol P) | Solubility [1, 3] | Solubility (in words) [1, 3] | Saturated solubility (solvent system SSAG01, all three drugs combined) | Saturated solubility (solvent system SSAG01, drug added individually) | Saturated solubility (solvent system SSAG02, all three drugs combined) | Saturated solubility (solvent system SSAG02, drug added individually) | Saturated solubility (upon addition of phentolamine mesylate and prostaglandin E1, span over all solvent systems) | Amount permeated through the skin, SSAG02 with all of the drugs versus SSAG02 with the drug alone [2] |
| --- | --- | --- | --- | --- | --- | --- | --- | --- | --- |
| COc1ccc(Cc2nccc3cc(OC)c(OC)cc23)cc1OC.Cl [Papaverine HCl, papaverine hydrochloride] | poorly soluble | 2-3 % w/w | moderately soluble | 7.58 % w/w | 6.39 % w/w | 9.44 % w/w | 7.21 % w/w | 7.58-9.44 % w/w | much greater amount |
| CCCCC[C@H](O)/C=C/[C@H]1[C@H](O)CC(=O)[C@@H]1CCCCCCC(=O)O [Prostaglandin E1] | strongly soluble |  | poorly soluble |  |  |  |  |  |  |
